Laboratory results taken from PMC11249012 (Journal of Medicinal Chemistry, 2024).
In brackets after ≈: the same amount, converted by molar mass.

Legend:
Solubility = format: physicochemical
MDA-MB-231 TNBC cells = test: RealTime-Glo cell viability assay, MDA-MB-231 cells; format: cell-based, human; settings: for IC50: Homo sapiens, RealTime-Glo, 24 h, read-out: IC50 (cytotoxicity); for cytotoxicity: 100 nM, alone or in combination
4T1 tumors [1] = system: 4T1 tumors; design: method as in PMID 1540948; settings: 4T1 model, previous experiments ref 30; cited from earlier work
[2] = system: hyperacetylation of tubulin, H3K9 and H3K27; test: Western blot of tubulin and histone H3 hyperacetylation in B16-F10 cells; format: cell-based, mouse; settings: SAHA 100 nM
Description: B16-F10 cells are responsive to 1,25D analogues[45] and HDACi[46],[47] and are therefore widely used in preclinical studies of melanoma solid tumor growth and metastases.[48] Although curable when treated early, melanoma is fatal when invasive. The American Cancer Society projected 97,610 new invasive melanoma cases in the US in 2023 and 7990 deaths. Current treatment options include chemotherapy, surgery, immunotherapy, or single agents targeting mutated genes such as B-RAF or C-KIT.[49]
After 6 h treatments, 4T1, 4T07, or B16-F10 cells were solubilized in lysis buffer (20 mM Tris, pH 8, 150 mM NaCl, 1% Triton X-100, 3.5 mM SDS, and 13 mM deoxycholic acid), and proteins were separated on a 4–15% Tris/glycine/SDS gel (Bio-Rad). Then, the proteins were transferred to a nitrocellulose membrane, followed by blocking in 5% skim milk in Tris-buffered saline (TBS, 1×) solution. […] Finally, signals were detected using Clarity ECL substrates (Bio-Rad) and a ChemiDoc Imaging System. Changes in protein levels were quantified relative to control using Image Lab software (version 6.0.1) after normalization to GAPDH. […]
Figure S2. […] Quantification of the analyses of hyperacetylation in B16-F10 cells of tubulin, H3K9 and H3K27. […]

in vivo = settings: BALB/c, mouse, ip
4T1 cells [3] = test: RealTime-Glo cell viability assay, 4T1 cells; settings: for IC50: Mus musculus, 4T1, 24 h, read-out: IC50 (cytotoxicity)
B16-F10 tumors = test: B16-F10 melanoma model in vivo; design: species or system mouse; settings: C57BL/6 mice; ZG-126 5 mg/kg, AM-193 0.2 mg/kg, 1,25D 0.25 μg/kg, SAHA 80 mg/kg, gemcitabine 50 mg/kg
Experimental: We were then interested in comparing the efficacy of ZG compounds and other hybrids in tumor models in vivo. We focused initially on the B16-F10 melanoma which is syngeneic with C57BL/6 mice. The efficacy of ZG-126 in vivo in this model was tested in two experiments. […] In a second experiment, we compared the antitumor efficacy of hybrids at ∼0.5 MTD doses. […] All treatments were well tolerated, and body weights were unaffected (Figure 6C).
(§1) Finally, mice were sacrificed, and lungs of 4T1-bearing mice were removed to evaluate the efficiency of treatments on lung metastases.

[4] = system: macrophage infiltration into 4T1 tumors; test: Immunofluorescence of macrophages in 4T1 tumors (F4/80, Arg1); format: in vivo, mouse; settings: Figure 8B
Experimental: Inhibition of PD-L1 and CD80/CD86 is directly achieved through the immune checkpoint blockade of their receptors using anti-CTLA-4 and anti-PD-1 antibodies.[69],[70]
Primary tumor tissues were fixed using 4% paraformaldehyde and subsequently dehydrated in sucrose solutions ranging from 10 to 30% for approximately 24 h each. The tissues were then embedded in base molds (Fisherbrand—#22363553) containing an optimal cutting temperature (OCT) compound (Fisher Healthcare—#4585). The tissue blocks were placed immediately on dry ice until the OCT compound solidified, and then they were stored at −80 °C. Prior to IF staining, sections of 5–10 μm were obtained using a Leica CM3050 S cryostat and SuperFrost Plus slides (Fisherbrand—#1255015). The tumor sections were then incubated with blocking buffer [phosphate-buffered saline containing 2% bovine serum albumin, 0.3% Triton X-100, 1% FBS, and 10% goat serum] for 1 h at RT. To detect macrophages in the TME, the sections were incubated with a pan-macrophage rat monoclonal antibody F4/80 (Abcam—#6640) diluted in blocking buffer overnight at 4 °C. Sixteen hours later, tissues were washed 3 times with 100 mM Tris–HCl and then incubated with a secondary goat antirat antibody (Invitrogen—#A11081) for 1 h at RT. […] Subsequently, 4′,6-diamidino-2-phenylindole (DAPI; Invitrogen—#D3571) was used to counterstain the nuclei for 5 min at RT. Finally, the slides were mounted using Fluoromount-G medium (Invitrogen—#00495802) and coverslips (Fisher Scientific—#12545E) and imaged with a Zeiss LSM 710 confocal microscope with ×20 objective. Quantification was carried out by QuPath software (version 0.3.2). F4/80+ macrophages and F4/80+ Arg1+ M2 macrophages were classified based on their fluorescence signal.

4T1 cells [5] = test: Cytokine and chemokine gene expression in 4T1 cells in vitro; format: cell-based, mouse; settings: Figure 8A
4T1 tumors [6] = test: 4T1 TNBC model in vivo (primary tumor and lung metastases); design: species or system mouse; settings: 4T1 model; for #Surface metastases (lung): 1,25D 0.25 μg/kg, SAHA 80 mg/kg, AM-193 0.2 mg/kg, ZG-126 high 5.0 mg/kg, vehicle 166
Experimental: As 4T1 cells are aggressively metastatic, we can also assess the antimetastatic activity in the same experiment. All treatments were well tolerated, and, as in the B16-F10 model, none induced weight loss or other signs of stress over the course of the experiment (Figure 7A). Treatments reduced the primary tumor burden to varying degrees.
The antimetastatic activity was determined by counting the number of surface lung metastases of duplicate samples using a stereomicroscope. […] This degree of efficacy is remarkable, as in previous experiments, DK-406 reduced the metastatic burden by ∼2-fold.[30]
as §1

[7] = system: hyperacetylation of tubulin, H3K9 and H3K27; test: Western blot of tubulin and histone H3 hyperacetylation in 4T1 cells; format: cell-based, mouse; settings: hybrids 10 μM, SAHA 100 nM, 6 h
Experimental: The potential for compounds as HDACi’s can be rapidly tested in cells in culture by monitoring the hyperacetylation of histone H3 and tubulin. H3 acetylation is controlled by multiple class I enzymes, and the class IIb enzyme HDAC6 regulates tubulin acetylation.[36]−[39] […] (Figure 4A).
Figure 4 Evidence for HDAC inhibition in 4T1 and 4TO7 TNBC cells. Western blots and quantification of triplicate biological replicates analyzing the effects of 1,25D (100 nM), SAHA (100 nM), and hybrids (10 μM) on hyperacetylation of tubulin (A,D), H3K9 (B,E), and H3K27 (C,F) in 4T1 (A–C) and 4TO7 cells (D–F).
After 6 h treatments, 4T1, 4T07, or B16-F10 cells were solubilized in lysis buffer (20 mM Tris, pH 8, 150 mM NaCl, 1% Triton X-100, 3.5 mM SDS, and 13 mM deoxycholic acid), and proteins were separated on a 4–15% Tris/glycine/SDS gel (Bio-Rad). Then, the proteins were transferred to a nitrocellulose membrane, followed by blocking in 5% skim milk in Tris-buffered saline (TBS, 1×) solution. After blocking, the membranes were incubated overnight at 4 °C with the primary antibodies against acetylated tubulin (Sigma-Aldrich—#T7451), tubulin (Sigma-Aldrich—#T9026), acetyl-histone H3(Lys9) (Merck Millipore—#07-352), acetyl-histone H3 (Lys27) (Abcam—#ab4729), total histone H3 (Cell Signaling Technology (CST)—#3638), and GAPDH (Abcam—#ab8245). Then, the membranes were incubated with antimouse (CST—#7076) or antirabbit (CST—#7074) IgG HRP-linked secondary antibodies at recommended concentrations. Finally, signals were detected using Clarity ECL substrates (Bio-Rad) and a ChemiDoc Imaging System. Changes in protein levels were quantified relative to control using Image Lab software (version 6.0.1) after normalization to GAPDH. Western blot experiments were carried out three times.

VDR = molecular target: T1, VDR (Mus musculus, UniProt P48281); test: Cyp24a1 gene induction (VDR agonism) in 4T1 cells; format: cell-based; design: endogenous in cells; settings: Figure 2A
T1 sequence (P48281 1-422): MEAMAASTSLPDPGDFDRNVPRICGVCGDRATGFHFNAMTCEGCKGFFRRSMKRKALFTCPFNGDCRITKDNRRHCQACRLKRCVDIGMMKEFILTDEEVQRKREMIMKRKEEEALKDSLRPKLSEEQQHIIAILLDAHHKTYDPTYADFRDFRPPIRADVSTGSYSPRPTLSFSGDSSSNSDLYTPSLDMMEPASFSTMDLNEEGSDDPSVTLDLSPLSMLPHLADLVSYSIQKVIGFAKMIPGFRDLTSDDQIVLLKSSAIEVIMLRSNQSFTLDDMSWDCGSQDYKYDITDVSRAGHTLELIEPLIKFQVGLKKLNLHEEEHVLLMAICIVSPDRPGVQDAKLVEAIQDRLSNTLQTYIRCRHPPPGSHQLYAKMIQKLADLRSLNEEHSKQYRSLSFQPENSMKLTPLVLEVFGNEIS
Experimental: We first examined the effect of the modified structures on solubility. […] The bifunctionality of ZG compounds was then analyzed in a battery of assays. VDR agonism was determined by evaluating the induction of the Cyp24a1 gene. Cyp24a1 encodes the enzyme that initiates the catabolic degradation of 1,25D in a negative-feedback loop, and its gene transcription is exquisitely sensitive to the presence of the agonist-bound VDR. Agonism was assessed initially in mouse 4T1 cells and in related 4TO7 TNBC cells (Figure 2A,B). […] Apparent potencies were lower than those of DK-406 and AM-193.
RNA extraction was performed with the FavorPrep tissue total RNA mini kit (FAVORGEN Biotech Corporation FATRK 001) as per manufacturer’s instructions. cDNA was obtained from 1 μg of RNA using 5× All-in-One RT MasterMix (Applied Biological Materials (abm) Inc. G485) and diluted 5 times. qPCR was performed with BrightGreen 2× q-PCR MasterMix (abm MasterMix-LR-XL) on a Roche LightCycler 96 system. Expression of targeted genes was normalized to 18 s.

SMILES	solubility (Solubility) [µg/mL]	IC50 (MDA-MB-231 TNBC cells) [nM]	MTD (in vivo) [mg/kg]	IC50 (4T1 cells [3]) [nM]	#Surface metastases (lung) (4T1 tumors [6])	other results
CCC(CC)(c1ccc(C(=O)NCCCCCC(=O)NO)cc1)c1ccc(OCC(O)C(C)(C)C)c(C)c1 (centres unmarked) [DK-406, reference compound]	4.40 (≈ 8.35 µM)	2430	1	9080		reduction of metastatic burden (4T1 tumors [1]): ~2 fold; tubulin acetylation and histone hyperacetylation [2]: induced very high levels of tubulin acetylation and histone hyperacetylation
Nc1ccn([C@@H]2O[C@H](CO)[C@@H](O)C2(F)F)c(=O)n1 [gemcitabine, reference compound]						B16-F10 tumor burden (B16-F10 tumors): statistically significant reduction in tumor burden
C=C1/C(=C\C=C2/CCC[C@]3(C)[C@@H]([C@H](C)CCCC(C)(C)O)CC[C@@H]23)C[C@@H](O)C[C@@H]1O [1,25D, 1,25-dihydroxyvitamin D]					114	total macrophage infiltration into 4T1 tumors (F4/80 staining) [4]: significantly reduced; cytotoxicity (MDA-MB-231 TNBC cells): did not display significant cytotoxicity; expression of Ccl2, Ccl5, Ccl20, and Cxcl10 (4T1 cells [5]): inhibited; expression of the gene encoding interleukin-1α (4T1 cells [5]): induced
CCC(CC)(c1ccc(OCCCCCC(=O)NO)cc1)c1ccc(OCC(O)C(C)(C)C)c(C)n1 (centres unmarked) [AM-193, reference compound]		500	0.5	740	89	tubulin acetylation [7]: highly efficacious inducer of tubulin acetylation; effect on primary tumor burden (4T1 tumors [6]; AM-193 0.2 mg/kg compared with ZG-126 5 mg/kg): less efficacious than the high dose of ZG-126
CCC(CC)(c1ccc(C(=O)NCCCC(=O)NO)cc1)c1ccc(OCC(O)C(C)(C)C)c(C)n1 (centres unmarked) [ZG-132, 4-(3-(5-(2-Hydroxy-3,3-dimethylbutoxy)-6-methylpyridin-2-yl)pentan-3-yl)-N-(4-(hydroxyamino)-4-oxobutyl)benzamide]	10.71 (≈ 21.4 µM)	950	10	4550		Cyp24a1 induction (VDR): did not appear to be a full agonist
CCC(CC)(c1ccc(C(=O)NCCCCCC(=O)NO)cc1)c1ccc(OCC(O)C(C)(C)C)c(C)n1 (centres unmarked) [ZG-102, 4-(3-(5-(2-Hydroxy-3,3-dimethylbutoxy)-6-methylpyridin-2-yl)pentan-3-yl)-N-(6-(hydroxyamino)-6-oxohexyl)benzamide]	4.45 (≈ 8.43 µM)	2180	10	55800		Cyp24a1 induction (VDR): did not appear to be a full agonist
O=C(CCCCCCC(=O)Nc1ccccc1)NO [SAHA, reference compound]					139	total macrophage infiltration into 4T1 tumors (F4/80 staining) [4]: not; cytotoxicity (MDA-MB-231 TNBC cells): did not display significant cytotoxicity; cytotoxicity (4T1 cells [3]; 4T1 cells, 100 nM, alone or in combination): did not display significant cytotoxicity
